Test results: patent US10323036B2 (Nimbus Lakshmi, Inc., priority 2016, dated 2019)
pKd: −log10 of the molar value. Read-outs that look alike come from different tables or passages of the source.

Biological target: human TYK2 (JH2domain-pseudokinase) (Homo sapiens (Human), UniProt P29597)
Assay: TYK2 JH2 Domain Binding Assay (KINOMEscan)
Conditions: read-out: JH2 Kd
[1] = Table 5, Tyk2 JH2 Domain Binding Assay

human TYK2 (JH2domain-pseudokinase), sequence (P29597 556-888): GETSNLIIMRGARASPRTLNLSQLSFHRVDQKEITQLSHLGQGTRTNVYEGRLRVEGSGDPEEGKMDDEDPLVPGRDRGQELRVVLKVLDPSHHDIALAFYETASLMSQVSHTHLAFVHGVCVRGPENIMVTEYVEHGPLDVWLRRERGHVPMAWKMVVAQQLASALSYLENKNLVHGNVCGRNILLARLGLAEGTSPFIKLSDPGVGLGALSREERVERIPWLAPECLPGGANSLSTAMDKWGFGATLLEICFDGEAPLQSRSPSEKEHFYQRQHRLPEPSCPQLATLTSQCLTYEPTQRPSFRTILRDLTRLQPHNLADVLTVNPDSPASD

Row | SMILES | pKd (Table 4, JH2 binding assay) | pKd [1]
1 | Cn1[nH]c2nc(NC(=O)C3CC3(F)F)cc(Nc3ccc(C4CC4)cc3S(C)(=O)=O)c2c1=O (centres unmarked) [Compound I-239, N-(4-((4-cyclopropyl-2-(methylsulfonyl)phenyl)amino)-2-methyl-3-oxo-2,3-dihydro-1H-pyrazolo[3,4-b]pyridin-6-yl)-2,2-difluorocyclopropane-1-carboxamide] | 9.30 to 10.00 | –
2 | COc1c(Cl)cccc1Nc1cc(Nc2cc3n(n2)CCCC3)nc2[nH]n(C)c(=O)c12 [Compound I-222, 4-((3-chloro-2-methoxyphenyl)amino)-2-methyl-6-((4,5,6,7-tetrahydropyrazolo[1,5-a]pyridin-2-yl)amino)-1,2-dihydro-3H-pyrazolo[3,4-b]pyridin-3-one] | 8.00 to 9.00 | –
3 | COc1c(Nc2cc(NC(=O)C3CC3)nc3[nH]n(C)c(=O)c23)cccc1-c1n[nH]c(C)n1 [Compound I-62] | > 10.00 | –
4 | COc1c(Nc2cc(Nc3ccc(C)cn3)nc3[nH]n(C)c(=O)c23)cccc1-c1nnn(C)n1 [Compound I-3, 4-((2-methoxy-3-(2-methyl-2H-tetrazol-5-yl)phenyl)amino)-2-methyl-6-((5-methylpyridin-2-yl)amino)-1,2-dihydro-3H-pyrazolo[3,4-b]pyridin-3-one] | 9.30 to 10.00 | –
5 | Cc1ncc(Nc2cc(Nc3ccc(C4CC4)cc3S(C)(=O)=O)c3c(=O)n(C)[nH]c3n2)nc1C [Compound I-211, 4-((4-cyclopropyl-2-(methylsulfonyl)phenyl)amino)-6-((5,6-dimethylpyrazin-2-yl)amino)-2-methyl-1,2-dihydro-3H-pyrazolo[3,4-b]pyridin-3-one] | 9.00 to 9.30 | –
6 | COc1c(Nc2cc(Cl)nc3[nH]n(C)c(=O)c23)cccc1-c1nnn(C)n1 [Compound I-27] | < 8.00 | –
7 | COc1c(F)cccc1Nc1cc(Nc2cccc(C3CC3)n2)nc2[nH]n(C)c(=O)c12 [Compound I-87, 6-((6-cyclopropylpyridin-2-yl)amino)-4-((3-fluoro-2-methoxyphenyl)amino)-2-methyl-1,2-dihydro-3H-pyrazolo[3,4-b]pyridin-3-one] | 8.00 to 9.00 | –
8 | CN(c1cc(C2CC2)ccc1Nc1cc(NC(=O)C2CC2)nc2[nH]n(C)c(=O)c12)S(C)(=O)=O [Compound I-232] | > 10.00 | –
9 | CCn1nc(-c2cccc(-c3nnn(C)n3)c2OC)c2cc(NC(=O)C3CC3)ncc21 [XVI-5, N-(1-ethyl-3-(2-methoxy-3-(2-methyl-2H-tetrazol-5-yl)phenyl)-1H-pyrazolo[3,4-c]pyridin-5-yl)cyclopropanecarboxamide] | – | 7.00 to 8.00
10 | COc1c(Nc2cc(Nc3ccc(C)nn3)nc3[nH]n(C)c(=O)c23)cccc1-c1ccn(C)n1 [Compound I-121, 4-((2-methoxy-3-(1-methyl-1H-pyrazol-3-yl)phenyl)amino)-2-methyl-6-((6-methylpyridazin-3-yl)amino)-1,2-dihydro-3H-pyrazolo[3,4-b]pyridin-3-one] | 9.00 to 9.30 | –
11 | COc1c(Nc2cc(NC(=O)C3CC3)nc3[nH]n(C)c(=O)c23)cccc1-c1nnnn1C [Compound I-52] | 8.00 to 9.00 | –
12 | COc1c(Cl)cccc1Nc1cc(Nc2cnc(C(C)C)c(C#N)n2)nc2[nH]n(C)c(=O)c12 [Compound I-158, 6-((4-((3-chloro-2-methoxyphenyl)amino)-2-methyl-3-oxo-2,3-dihydro-1H-pyrazolo[3,4-b]pyridin-6-yl)amino)-3-isopropylpyrazine-2-carbonitrile] | < 8.00 | –
13 | COc1c(Cl)cccc1Nc1cc(Nc2ccc(C#N)cn2)nc2[nH]n(C)c(=O)c12 [Compound I-98, 6-((4-((3-chloro-2-methoxyphenyl)amino)-2-methyl-3-oxo-2,3-dihydro-1H-pyrazolo[3,4-b]pyridin-6-yl)amino)nicotinonitrile] | 9.00 to 9.30 | –
14 | COc1c(Nc2cc(Nc3ccc(C)cn3)nc3[nH]n(C)c(=O)c23)cccc1-c1ncn(C)n1 [Compound I-16, 4-((2-methoxy-3-(1-methyl-1H-1,2,4-triazol-3-yl)phenyl)amino)-2-methyl-6-((5-methylpyridin-2-yl)amino)-1H-pyrazolo[3,4-b]pyridin-3(2H)-one] | 9.30 to 10.00 | –
15 | COc1c(Nc2cc(NC(=O)C3CC3)nc3[nH]n(C)c(=O)c23)cccc1-c1cnn(C)c1 [Compound I-55, N-(4-((2-methoxy-3-(1-methyl-1H-pyrazol-4-yl)phenyl)amino)-2-methyl-3-oxo-2,3-dihydro-1H-pyrazolo[3,4-b]pyridin-6-yl)cyclopropanecarboxamide] | 9.00 to 9.30 | –
16 | Cn1[nH]c2nc(Nc3cccc(C(F)(F)F)n3)cc(Nc3ccc(Cl)cc3S(C)(=O)=O)c2c1=O [Compound I-209, 4-((4-chloro-2-(methylsulfonyl)phenyl)amino)-2-methyl-6-((6-(trifluoromethyl)-pyridin-2-yl)amino)-1,2-dihydro-3H-pyrazolo[3,4-b]pyridin-3-one] | 9.00 to 9.30 | –

Row | SMILES | pKd (Table 4, JH2 binding assay) | pKd [1]
17 | COc1c(Nc2cc(Nc3cc(C#N)ccn3)nc3[nH]n(C)c(=O)c23)cccc1-c1nnn(C)n1 [Compound I-32, 2-((4-((2-methoxy-3-(2-methyl-2H-tetrazol-5-yl)phenyl)amino)-2-methyl-3-oxo-2,3-dihydro-1H-pyrazolo[3,4-b]pyridin-6-yl)amino)isonicotinonitrile] | < 8.00 | –
18 | COc1c(F)cccc1Nc1cc(Nc2ccc(C)nn2)nc2[nH]n(C)c(=O)c12 [Compound I-75, 4-((3-fluoro-2-methoxyphenyl)amino)-2-methyl-6-((6-methylpyridazin-3-yl)amino)-1,2-dihydro-3H-pyrazolo[3,4-b]pyridin-3-one] | 9.30 to 10.00 | –
19 | COc1c(Nc2cc(Nc3cccc(C#N)n3)ncc2-c2nnc(CO)o2)cccc1-c1ncn(C)n1 [VIII-13, 6-((5-(5-(hydroxymethyl)-1,3,4-oxadiazol-2-yl)-4-((2-methoxy-3-(1-methyl-1H-1,2,4-triazol-3-yl)phenyl)amino)pyridin-2-yl)amino)picolinonitrile] | – | 9.00 to 10.00
20 | COc1c(Nc2cc(NC(=O)C3CC3)nc3[nH]n(C)c(=O)c23)cccc1N1CCCC1=O [Compound I-88, N-(4-((2-methoxy-3-(2-oxopyrrolidin-1-yl)phenyl)amino)-2-methyl-3-oxo-2,3-dihydro-1H-pyrazolo[3,4-b]pyridin-6-yl)cyclopropanecarboxamide] | 8.00 to 9.00 | –
21 | COc1c(F)cccc1Nc1cc(Nc2cnc(C(C)(C)OC)c(C#N)n2)nc2[nH]n(C)c(=O)c12 [Compound I-190, 6-((4-((3-fluoro-2-methoxyphenyl)amino)-2-methyl-3-oxo-2,3-dihydro-1H-pyrazolo[3,4-b]pyridin-6-yl)amino)-3-(2-methoxypropan-2-yl)pyrazine-2-carbonitrile] | 9.00 to 9.30 | –
22 | COc1c(Nc2cc(NC(=O)C3CC3)nc3[nH]n(C)c(=O)c23)cccc1C(N)=O [Compound I-102, 3-((6-(cyclopropanecarboxamido)-2-methyl-3-oxo-2,3-dihydro-1H-pyrazolo[3,4-b]pyridin-4-yl)amino)-2-methoxybenzamide] | < 8.00 | –
23 | COc1c(Nc2cc(Nc3ccc(C)nn3)nc3[nH]n(C)c(=O)c23)cccc1-c1nnn(C)n1 [Compound I-10, 4-((2-methoxy-3-(2-methyl-2H-tetrazol-5-yl)phenyl)amino)-2-methyl-6-((6-methylpyridazin-3-yl)amino)-1,2-dihydro-3H-pyrazolo[3,4-b]pyridin-3-one] | > 10.00 | –
24 | COCc1ccnc(Nc2cc(Nc3cccc(-c4nnn(C)n4)c3OC)c(-c3ncc(Cl)s3)cn2)c1 [VIII-17, 5-(5-chlorothiazol-2-yl)-N4-(2-methoxy-3-(2-methyl-2H-tetrazol-5-yl)phenyl)-N2-(4-(methoxymethyl)pyridin-2-yl)pyridine-2,4-diamine] | – | 9.00 to 10.00
25 | Cc1cc(Nc2cc(Nc3ccccc3S(C)(=O)=O)c3c(=O)n(C)[nH]c3n2)ncc1F [Compound I-107, 6-((5-fluoro-4-methylpyridin-2-yl)amino)-2-methyl-4-((2-(methylsulfonyl)phenyl)amino)-1,2-dihydro-3H-pyrazolo[3,4-b]pyridin-3-one] | 9.30 to 10.00 | –
26 | COCc1ccc(Nc2cc(Nc3cccc(C(F)(F)F)n3)nc3[nH]n(C)c(=O)c23)c(OC)c1 [Compound I-67, 4-((2-methoxy-4-(methoxymethyl)phenyl)amino)-2-methyl-6-((6-(trifluoromethyl)pyridin-2-yl)amino)-1,2-dihydro-3H-pyrazolo[3,4-b]pyridin-3-one] | 8.00 to 9.00 | –
27 | COc1c(F)cccc1Nc1cc(Nc2ccc(N3CCCC3)cn2)nc2[nH]n(C)c(=O)c12 [Compound I-90, 4-((3-fluoro-2-methoxyphenyl)amino)-2-methyl-6-((5-(pyrrolidin-1-yl)pyridin-2-yl)amino)-1,2-dihydro-3H-pyrazolo[3,4-b]pyridin-3-one] | < 8.00 | –
28 | COc1c(Nc2cc(Nc3cccc(C#N)n3)nc3[nH]n(C)c(=O)c23)cccc1-c1ncn(C)n1 [Compound I-30, 6-((4-((2-methoxy-3-(1-methyl-1H-1,2,4-triazol-3-yl)phenyl)amino)-2-methyl-3-oxo-2,3-dihydro-1H-pyrazolo[3,4-b]pyridin-6-yl)amino)picolinonitrile] | < 8.00 | –
29 | Cc1ccc(Nc2cc(NC(=O)C3CC3)nc3[nH]n(C)c(=O)c23)c(N(C)S(C)(=O)=O)c1 [Compound I-229, N-(2-methyl-4-((4-methyl-2-(N-methylmethylsulfonamido)phenyl)amino)-3-oxo-2,3-dihydro-1H-pyrazolo[3,4-b]pyridin-6-yl)cyclopropanecarboxamide] | > 10.00 | –
30 | COc1c(Nc2cc(Nc3ccc(C#N)cn3)nc3[nH]n(C)c(=O)c23)cccc1-c1nnn(C)n1 [Compound I-12, 6-((4-((2-methoxy-3-(2-methyl-2H-tetrazol-5-yl)phenyl)amino)-2-methyl-3-oxo-2,3-dihydro-1H-pyrazolo[3,4-b]pyridin-6-yl)amino)nicotinonitrile] | > 10.00 | –
31 | COc1c(Cl)cccc1Nc1cc(Nc2ccc(C)nn2)nc2[nH]n(C)c(=O)c12 [Compound I-105, 4-((3-chloro-2-methoxyphenyl)amino)-2-methyl-6-((6-methylpyridazin-3-yl)amino)-1,2-dihydro-3H-pyrazolo[3,4-b]pyridin-3-one] | 8.00 to 9.00 | –
32 | CN(c1cc(N2CCC2)ccc1Nc1cc(NC(=O)C2CC2)nc2[nH]n(C)c(=O)c12)S(C)(=O)=O [Compound I-219, N-(4-((4-(azetidin-1-yl)-2-(N-methylmethylsulfonamido)phenyl)amino)-2-methyl-3-oxo-2,3-dihydro-1H-pyrazolo[3,4-b]pyridin-6-yl)cyclopropanecarboxamide] | 9.30 to 10.00 | –
